The subject of test [1] is Cystic fibrosis transmembrane conductance regulator (Homo sapiens), P13569 [F508del]. In words: (§1) Corrector activity at CFTR F508del mutant (unknown origin) expressed in human CFBE41o cells incubated for 18 to 24 hrs by CSE-HRP assay. The test is classed as cell-based.
Test [2] addresses T1, Cystic fibrosis transmembrane conductance regulator (Homo sapiens, UniProt P13569, F508DEL). Described as §1. The test is classed as cell-based.
The subject of test [3] is Cystic fibrosis transmembrane conductance regulator (Homo sapiens), P13569 [F508del]. Kind of test: (§2) Corrector activity at CFTR F508del mutant in human bronchial epithelial cells incubated for 18 to 24 hrs by TECC-based conductance assay.
Test [4] addresses T1, Cystic fibrosis transmembrane conductance regulator. The test is described as §2.

Chain of Cystic fibrosis transmembrane conductance regulator (Homo sapiens), P13569 [F508del] (P13569 as listed by the source): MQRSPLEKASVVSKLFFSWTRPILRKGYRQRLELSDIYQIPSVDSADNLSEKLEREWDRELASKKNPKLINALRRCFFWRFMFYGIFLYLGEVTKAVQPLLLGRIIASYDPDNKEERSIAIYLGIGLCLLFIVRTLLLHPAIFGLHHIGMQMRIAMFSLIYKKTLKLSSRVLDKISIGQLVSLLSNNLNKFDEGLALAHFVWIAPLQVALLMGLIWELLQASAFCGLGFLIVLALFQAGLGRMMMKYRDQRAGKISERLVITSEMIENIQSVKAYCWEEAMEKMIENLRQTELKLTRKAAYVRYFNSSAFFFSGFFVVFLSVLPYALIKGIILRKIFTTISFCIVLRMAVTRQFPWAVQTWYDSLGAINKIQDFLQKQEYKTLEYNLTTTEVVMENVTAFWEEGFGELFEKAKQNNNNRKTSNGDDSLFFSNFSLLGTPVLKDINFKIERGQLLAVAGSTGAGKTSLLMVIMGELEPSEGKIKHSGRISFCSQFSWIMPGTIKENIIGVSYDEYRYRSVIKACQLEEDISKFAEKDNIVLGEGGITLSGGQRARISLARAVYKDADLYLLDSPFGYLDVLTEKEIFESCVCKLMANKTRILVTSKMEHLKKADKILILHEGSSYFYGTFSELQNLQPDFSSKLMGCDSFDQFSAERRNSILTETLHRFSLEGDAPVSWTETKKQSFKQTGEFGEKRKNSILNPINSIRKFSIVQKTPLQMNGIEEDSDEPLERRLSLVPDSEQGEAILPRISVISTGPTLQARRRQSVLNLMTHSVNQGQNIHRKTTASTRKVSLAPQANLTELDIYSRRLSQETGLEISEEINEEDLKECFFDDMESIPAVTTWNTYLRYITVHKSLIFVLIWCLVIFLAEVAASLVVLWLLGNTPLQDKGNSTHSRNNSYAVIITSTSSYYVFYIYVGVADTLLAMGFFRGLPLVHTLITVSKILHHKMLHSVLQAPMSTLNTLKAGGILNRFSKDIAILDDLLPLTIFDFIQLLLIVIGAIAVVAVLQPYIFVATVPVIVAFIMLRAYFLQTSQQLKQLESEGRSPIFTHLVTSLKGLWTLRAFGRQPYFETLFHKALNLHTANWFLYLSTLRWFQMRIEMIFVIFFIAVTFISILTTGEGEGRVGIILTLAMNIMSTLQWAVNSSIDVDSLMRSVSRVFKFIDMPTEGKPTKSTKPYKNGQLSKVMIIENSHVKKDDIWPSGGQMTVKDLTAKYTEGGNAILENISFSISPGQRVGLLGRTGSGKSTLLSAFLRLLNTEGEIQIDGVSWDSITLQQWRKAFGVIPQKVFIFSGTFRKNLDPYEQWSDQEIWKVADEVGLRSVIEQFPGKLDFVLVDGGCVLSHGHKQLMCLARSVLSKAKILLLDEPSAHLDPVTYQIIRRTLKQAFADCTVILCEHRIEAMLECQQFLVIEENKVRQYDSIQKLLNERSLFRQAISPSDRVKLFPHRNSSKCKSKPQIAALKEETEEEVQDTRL
T1 sequence (P13569 as listed by the source): as above

With `O=C(O)c1cccc([C@H]2C[C@@H](NC(=O)C3(c4ccc5c(c4)OC(F)(F)O5)CC3)CCO2)c1` (racemic), the max activation in test [1] turned out to be 71%. Besides, the midpoint of the response in test [2], the EC50, lay at 850 nM.

In test [1], `CCOC(=O)c1cc(C)cc([C@H]2C[C@@H](NC(=O)C3(c4ccc5c(c4)OC(F)(F)O5)CC3)C[C@@H](c3ccccc3)O2)c1` (racemic) gave a max activation of 106%. The compound also yielded an EC50 in test [2] of 1160 nM.

In turn, `O=C(O)c1cccc([C@@H]2C[C@H](NC(=O)C3(c4ccc5c(c4)OC(F)(F)O5)CC3)C[C@H](c3ccccc3)O2)c1` returned a max activation in test [1] of 16%. In test [2], the EC50 is 20000 nM.

Take `O=C(O)c1ccc([C@H]2C[C@@H](NC(=O)C3(c4ccc5c(c4)OC(F)(F)O5)CC3)CCO2)cc1` (racemic): the max activation in test [1] was determined as 113%; in test [3], 73%. Besides, the results for the EC50 in test [2] and in test [4] were 2860 nM and 1340 nM, respectively.

Take `O=C(O)c1ccc([C@H]2C[C@@H](NC(=O)C3(c4ccc5c(c4)OC(F)(F)O5)CC3)C[C@@H](c3ccccc3)O2)cc1`: the max activation in test [1] turned out to be 81%; in test [3], 73%. The figures for the EC50 in test [2] and in test [4] were 300 nM and 260 nM, respectively.

Take `O=C(O)c1cccc([C@H]2C[C@@H](NC(=O)C3(c4ccc5c(c4)OC(F)(F)O5)CC3)C[C@@H](c3ccccc3)O2)c1`: the values for the max activation in test [1] and in test [3] were 109% and 94%, respectively. The EC50 worked out at 280 nM in test [2] and 100 nM in test [4].

A word on the EC50: it is the concentration that produces a half-maximal response. A high value points to lower potency in that assay.

Values taken from ChEMBL document CHEMBL4431371, “Targeting the Cystic Fibrosis Transmembrane Conductance Regulator (CFTR) Protein for the Treatment of Cystic Fibrosis” (ACS Med Chem Lett, 2016).
